Source: patent US20210392889A1, “COMPOSITIONS COMPRISING PYRIDINE CARBOXYLATE HERBICIDES WITH PDS INHIBITOR HERBICIDES” (Corteva Agriscience LLC, priority 2018, published 2021)

Legend:
Experiment in all cases: Greenhouse postemergence herbicidal effect, visual injury after 20-22 d
Format in all cases: in vivo
[1] = tested on: Canada thistle (CIRAR, Cirsium arvense); settings: for visual injury: Table 1
Text: (§1) Seeds of the desired test plant species were planted in a 90:10% v/v (volume/volume) mixture of PRO-MIX® BX (Premier Tech Horticulture, Quakertown, Pa., USA) and PROFILE® GREENS GRADE™ (Profile Products LLC, Buffalo Grove, Ill., USA) planting mixture, which typically has a pH of 5.2 to 6.2 and an organic matter content of at least 50 percent, in plastic pots with a surface area of 103.2 square centimeters (cm^2). In some aspects, to ensure good germination and healthy plants, a fungicide treatment and/or other chemical or physical treatment was applied. The plants were grown for 7-36 days (d) in a greenhouse with an approximate 14-hour (h) photoperiod which was maintained at about 23° C. during the day and 22° C. during the night. Nutrients and water were added on a regular basis and supplemental lighting was provided with overhead metal halide 1000-Watt lamps as necessary. The plants were employed for testing when they reached the second or third true leaf stage.
(§2) Emulsifiable concentrates of each of each pyridine carboxylate herbicide (Compound A or Compound B) were prepared at 100 grams acid equivalent per liter (g ae/L). The emulsifiable concentrates also included a safener, cloquintocet-mexyl, at 120 grams active ingredient per liter (g ai/L). An aliquot of each emulsifiable concentrate was placed in a 25 mL glass vial and diluted with an aqueous mixture of 1.25% (v/v) ACTIROB® B esterified rapeseed oil (Bayer Crop Science, Research Triangle Park, N.C., USA) or MSO® Concentrate with LECI-TECH® methylated soybean oil (Loveland Products, Loveland, Colo., USA) to obtain concentrated stock solutions at the highest application rate for each herbicide, based upon a 12 milliliter (mL) application volume at a rate of 187 liters per hectare (L/ha). The concentrated stock solutions were further diluted with an aqueous mixture of 1.25% v/v ACTIROB® B or MSO® Concentrate with LECI-TECH® to obtain stock solutions at reduced application rates for each herbicide. Spray solutions of the herbicide combinations (Compound A or Compound B plus PDS inhibitor herbicide) were prepared by adding weighed amounts or aliquots of the PDS inhibitor herbicide to the stock solutions of Compound A or Compound B to form 12-mL spray solutions in two- or three-way combinations.
(§3) The spray solutions were applied to the plant material with an overhead Mandel track sprayer equipped with 8002E nozzles calibrated to deliver 187 L/ha over an application area of 0.503 square meters (m^2) at a spray height of 18 inches ([…] centimeters (cm)) above the average plant canopy. Control plants were sprayed in the same manner with the solvent blank. All pyridine carboxylate herbicide (component a) application rates are given as “g ae/ha” and all PDS inhibitor herbicide (component b) application rates are given as “g ai/ha.”
(§4) The treated plants and control plants were placed in a greenhouse as described above and watered by sub-irrigation to prevent wash-off of the test compounds. After 20-22 d, the condition of the test plants as compared with that of the control plants was determined visually and scored on a scale of 0 to 100 percent where 0 corresponds to no injury and 100 corresponds to complete kill.

[2] = tested on: Italian ryegrass (LOLMU, Lolium multiflorum.); settings: Table 4
Text: as §1, §2, §3, §4

[3] = tested on: broad-leaf dock (RUMOB, Rumex obtusifolius); settings: Table 4
Text: as §1, §2, §3, §4

[4] = tested on: giant foxtail (SETFA, Setaria faberi); settings: Table 4
Text: as §1, §2, §3, §4

[5] = tested on: large crabgrass (DIGSA, Digitaria sanguinalis); settings: Table 4
Text: as §1, §2, §3, §4

[6] = tested on: pigweed (AMARE, Amaranthus retroflexus); settings: for visual injury: Table 1
Text: as §1, §2, §3, §4

[7] = tested on: poinsettia (EPHHL, Euphorbia heterophylla)
Text: as §1, §2, §3, §4

[8] = tested on: spring rape (BRSNN, Brassica napus)
Text: as §1, §2, §3, §4

[9] = tested on: wild buckwheat (POLCO, Polygonum convolvulus); settings: for visual injury: Table 1
Text: as §1, §2, §3, §4

[10] = tested on: wild mustard (SINAR, Sinapis arvensis); settings: for visual injury: Table 1
Text: as §1, §2, §3, §4

[11] = tested on: wild pansy (VIOTR, Viola tricolor)
Text: as §1, §2, §3, §4

Structure (SMILES): N#CCOC(=O)c1nc(-c2ccc3cc[nH]c3c2F)c(F)c(N)c1Cl [Compound A, cyanomethyl 4-amino-3-chloro-5-fluoro-6-(7-fluoro-1H-indol-6-yl)pyridine-2-carboxylate]
- visual injury ([1]; 7.5 g/ha): 30%
- visual injury Obs ([1]; 7.5 g/ha, Table 3): 10%
- visual injury Obs ([1]; 7.5 g/ha, Table 4): 23%
- visual injury Obs ([1]; 7.5 g/ha, Table 5): 25%
- visual injury Obs ([1]; 7.5 g/ha, Table 6): 25%
- visual injury Obs ([1]; 7.5 g/ha, Table 7): 18%
- visual injury ([1]; 10 g/ha): 40%
- visual injury Obs ([1]; 10 g/ha, Table 3): 23%
- visual injury Obs ([1]; 10 g/ha, Table 4): 20%
- visual injury Obs ([1]; 10 g/ha, Table 5): 20%
- visual injury Obs ([1]; 10 g/ha, Table 6): 20%
- visual injury Obs ([1]; 10 g/ha, Table 7): 30%
- visual injury Obs ([2]; 7.5 g/ha): 0%
- visual injury Obs ([2]; 10 g/ha): 0%
- visual injury Obs ([3]; 7.5 g/ha): 8%
- visual injury Obs ([3]; 10 g/ha): 10%
- visual injury Obs ([4]; 7.5 g/ha): 70%
- visual injury Obs ([4]; 10 g/ha): 70%
- visual injury Obs ([5]; 7.5 g/ha): 45%
- visual injury Obs ([5]; 10 g/ha): 25%
- visual injury ([6]; 7.5 g/ha): 78%
- visual injury Obs ([6]; 7.5 g/ha, Table 3): 70%
- visual injury Obs ([6]; 7.5 g/ha, Table 5): 80%
- visual injury Obs ([6]; 7.5 g/ha, Table 6): 80%
- visual injury Obs ([6]; 7.5 g/ha, Table 7): 70%
- visual injury Obs ([6]; 7.5 g/ha, Table 8): 78%
- visual injury ([6]; 10 g/ha): 73%
- visual injury Obs ([6]; 10 g/ha, Table 3): 98%
- visual injury Obs ([6]; 10 g/ha, Table 5): 85%
- visual injury Obs ([6]; 10 g/ha, Table 6): 85%
- visual injury Obs ([6]; 10 g/ha, Table 7): 90%
- visual injury Obs ([6]; 10 g/ha, Table 8): 78%
- visual injury Obs ([6]; 15 g/ha, Table 8): 83%
- visual injury Obs ([7]; 7.5 g/ha, Table 5): 91%
- visual injury Obs ([7]; 7.5 g/ha, Table 6): 91%
- visual injury Obs ([7]; 10 g/ha, Table 5): 83%
- visual injury Obs ([7]; 10 g/ha, Table 6): 83%
- visual injury Obs ([8]; 7.5 g/ha, Table 2): 55%
- visual injury Obs ([8]; 7.5 g/ha, Table 3): 55%
- visual injury Obs ([8]; 7.5 g/ha, Table 4): 73%
- visual injury Obs ([8]; 10 g/ha, Table 2): 60%
- visual injury Obs ([8]; 10 g/ha, Table 3): 70%
- visual injury Obs ([8]; 10 g/ha, Table 4): 83%
- visual injury ([9]; 7.5 g/ha): 78%
- visual injury Obs ([9]; 7.5 g/ha, Table 2): 70%
- visual injury Obs ([9]; 7.5 g/ha, Table 3): 88%
- visual injury Obs ([9]; 7.5 g/ha, Table 5): 68%
- visual injury Obs ([9]; 7.5 g/ha, Table 6): 68%
- visual injury Obs ([9]; 7.5 g/ha, Table 7): 60%
- visual injury Obs ([9]; 7.5 g/ha, Table 8): 63%
- visual injury ([9]; 10 g/ha): 93%
- visual injury Obs ([9]; 10 g/ha, Table 2): 78%
- visual injury Obs ([9]; 10 g/ha, Table 3): 96%
- visual injury Obs ([9]; 10 g/ha, Table 5): 70%
- visual injury Obs ([9]; 10 g/ha, Table 6): 70%
- visual injury Obs ([9]; 10 g/ha, Table 7): 70%
- visual injury Obs ([9]; 10 g/ha, Table 8): 60%
- visual injury Obs ([9]; 15 g/ha, Table 8): 63%
- visual injury ([10]; 7.5 g/ha): 88%
- visual injury Obs ([10]; 7.5 g/ha, Table 2): 88%
- visual injury Obs ([10]; 7.5 g/ha, Table 3): 85%
- visual injury Obs ([10]; 7.5 g/ha, Table 7): 85%
- visual injury ([10]; 10 g/ha): 90%
- visual injury Obs ([10]; 10 g/ha, Table 2): 92%
- visual injury Obs ([10]; 10 g/ha, Table 3): 90%
- visual injury Obs ([10]; 10 g/ha, Table 7): 88%
- visual injury Obs ([11]; 7.5 g/ha, Table 4): 10%
- visual injury Obs ([11]; 7.5 g/ha, Table 5): 3%
- visual injury Obs ([11]; 7.5 g/ha, Table 6): 3%
- visual injury Obs ([11]; 10 g/ha, Table 4): 18%
- visual injury Obs ([11]; 10 g/ha, Table 5): 3%
- visual injury Obs ([11]; 10 g/ha, Table 6): 3%
